Like-named read-outs stand apart in the source and are kept apart here.
Key:
[1] = Competition with alizarin red S; 0.10M sodium phosphate buffer, pH 7.4; refs [b], [e]; cited from earlier work
[2] = Competition with alizarin red S; 0.10M sodium phosphate buffer, pH 7.4; ref [b]; cited from earlier work
[3] = 1H NMR in D2O (100% v/v); 0.10M sodium phosphate buffer, pH 7.4; ref [c]; cited from earlier work
[4] = Competition with alizarin red S; 0.10M sodium phosphate buffer, pH 7.4; ref [b]; cited from earlier work; remark: listed apart in the source
[5] = 11B NMR in H2O/D2O/MeOH mixture; ref [d]; cited from earlier work
[6] = Ka of boronic acids for saccharides by 1H NMR (H2O containing 2% D2O); format: binding; settings: 1H NMR in H2O containing D2O (2% v/v); 0.10M sodium phosphate buffer, pH 7.4; this work
Description: (§1) Methodology to determine the values of Ka for boronic acids and saccharides was adapted from work by Hall and coworkers. [13a, 13b]
(§2) A boronic acid (B) and a saccharide (S) were assumed to bind in one modality, B·S:
(§3) The [B·S]/[B] ratio was determined by the integration of aryl protons of the boronic acid.saccharide complex and the free boronic acid. The individual [B], [B·S], and [S] can be calculated from eq. 1-3.
(§4) Each value of Ka arose from at least two independent experiments with freshly prepared solutions, and each experiment consisted of a titration with 6-9 different concentrations.
(§5) All NMR spectra were analyzed with Topspin 3.0 software from Bruker AXS. NMR experiments were done in a 0.10 M NaH2PO4 buffer, pH 7.4, containing D2O (2% v/v). ^1H NMR experiments consisted of the first increment of a 2D NOSY with gradients for improved water suppression. […]
To a 25-mL volumetric flask, D-glucose (2.25 g, 12.5 mmol) and ˜20 mL of solution 1 was added. […] The [B·S]/[B] ratio was determined as depicted in FIG. 15. A value for Ka was calculated for every concentration as described above.
To a 25-mL volumetric flask, D-glucose (2.25 g, 12.5 mmol) and ˜20 mL of solution 2 was added. […] The [B·S]/[B] ratio was determined as depicted in FIG. 16. […] A value for Ka was calculated for every concentration as described above.

[7] = as above; format: binding; settings: 1H NMR in H2O containing D2O (2% v/v); 0.10M sodium phosphate buffer, pH 7.4; this work; remark: listed apart in the source
Description: as §1, §2, §3, §4, §5
To a […] volumetric flask, Neu5Ac (1.53 g, 5.0 mmol) and ˜20 mL of solution 1 was added. […] The [B·S]/[B] ratio was determined as depicted in FIG. 17. A value for Ka was calculated for every concentration as described above.
To a […] volumetric flask, Neu5Ac (1.56 g, […]) and ˜20 mL of solution 2 was added. […] The Ka value was calculated for every concentration as previously described. The [B·S]/[B] ratio was determined as illustrated in FIGS. 18 and 19. […] A value for Ka was calculated for every concentration as described above.

[8] = as above; format: binding; settings: 1H NMR in H2O containing D2O (2% v/v), 0.10M sodium phosphate buffer, pH 7.4, this work
Description: as §1, §2, §3, §4
All NMR spectra were analyzed with Topspin 3.0 software from Bruker AXS. NMR experiments were done in a 0.10 M NaH2PO4 buffer, pH 7.4, containing D2O (2% v/v). ^1H NMR experiments consisted of the first increment of a 2D NOSY with gradients for improved water suppression.
A. Representative Procedure for Making a Phenylboronic Acid Solution NaH2PO4 (3.0 g, 25 mmol) and PBA (phenylboronic acid, 458 mg, 3.75 mmol) were dissolved in distilled, deionized water in a volumetric flask (˜200 mL H2O, 5 mL D2O). The pH was adjusted carefully to 7.4 using 10 M NaOH, and additional water was added for a final volume of 250 mL. Final solutions were 15 mM in the boronic acid (PBA=solution 1; benzoboroxole=solution 2) in 0.10 M sodium phosphate monobasic buffer, pH 7.4, containing D2O (2% v/v).
To a 25-mL volumetric flask, D-fructose (674 mg, 3.75 mmol) and ˜20 mL of solution 1 was added. The solution was adjusted carefully to pH 7.4 by the addition of 10 M NaOH. (The volume of added NaOH was used in the calculation of the boronic acid concentration.) The volume was then increased to 25 mL by adding solution 1. […] The [B·S]/[B] ratio was determined for every concentration as follows. […]
To a 25-mL volumetric flask, D-fructose (674 mg, 3.75 mmol) and ˜20 mL of solution 2 was added. […] The [B·S]/[B] ratio was determined as depicted in FIG. 14. A value for Ka was calculated for every concentration as described above.

[9] = 1H NMR in D2O (100% v/v); 0.10M sodium phosphate buffer, pH 7.4; ref [c]; cited from earlier work; remark: listed apart in the source
[10] = ref 13b; cited from earlier work

SMILES | Ka for D-glucose [1] | Ka for D-fructose [2] | Ka for D-fructose [3] | Ka for Neu5Ac [4] | Ka for Neu5Ac [5] | Ka for D-glucose [6] | Ka for Neu5Ac [7] | Ka for D-fructose [8] | Ka for D-glucose [9] | pKa of the HOB [10] | Ka for D-fructose ([8]; listed as benzoxaborole)
OB(O)c1ccccc1 [PBA, Phenylboronic acid] | 4.6 M⁻¹ | 160 M⁻¹ | 79 M⁻¹ | 21 M⁻¹ | 11.6 ± 1.9 M⁻¹ | 5 ± 1 M⁻¹ | 13 ± 1 M⁻¹ | 128 ± 20 M⁻¹ | 0 M⁻¹ |  | 
OCc1ccccc1B(O)O [Benzoboroxole, 2-hydroxymethylphenylboronic acid] | 31 M⁻¹ |  | 606 M⁻¹ |  |  | 28 ± 4 M⁻¹ | 43 ± 5 M⁻¹ | 336 ± 43 M⁻¹ | 17 M⁻¹ | 7.2 | 336 M⁻¹
